Results as given in US6362369B1, “Phthalic acid diamide derivatives fluorine-containing aniline compounds as starting material, agricultural and horticultural insecticides, and a method for application of the insecticides” (Nihon Nohyaku Co., Ltd., priority 1997, dated 2002).

What was measured:
Type in all cases: in vivo
[1] = test system: diamondback moth (Plutella xylostella); test: Insecticidal effect on diamondback moth (Test Example 1); details: for Insecticidal effect, Test Example 1 / Insecticidal effect (Test Example 1), judged from mortality: diamondback moth; for Insecticidal effect on diamondback moth (Test Example 1), judged grade: mortality judged according to the criterion shown in Test Example 1; for Insecticidal effect (Test Example 1), judged from mortality: judged by the criterion of Test Example 1
Outline: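 Eggs laid by adult moths on Chinese cabbage seedlings, which were immersed in test solution, air-dried and kept at 25 °C. Hatched insects counted 6 days after immersion and mortality calculated, with effect graded by criterion; triplicate groups of 10 insects.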

[2] = test system: common cutworm (Spodoptera Litura); test: Insecticidal effect on common cutworm (Test Example 2); details: 500 ppm, 25° C.; for Insecticidal effect, Test Example 2: cabbage leaf immersed; for Insecticidal effect, Test Example 2 / Insecticidal effect on common cutworm (Test Example 2), judged grade: eight days after inoculation; for Insecticidal effect on common cutworm (Test Example 2), judged grade / Insecticidal effect (Test Example 2), judged from mortality: cabbage leaf dip; for Insecticidal effect on common cutworm (Test Example 2), judged grade: second-instar larvae; for Insecticidal effect (Test Example 2), judged from mortality: 8 days after inoculation
Method: Insecticidal effect on common cutworm (Spodoptera Litura)
After air-drying, it was placed in a plastic Petri dish with a diameter of 9 cm and inoculated with second-instar larvae of common cutworm, after which the dish was closed and then allowed to stand in a room thermostated at 25° C. Eight days after the inoculation, the dead and alive were counted. The mortality was calculated according to the following equation and the insecticidal effect was judged according to the criterion shown in Test Example 1. The test was carried out with triplicate groups of 10 insects. [formula]

[3] = test system: rice leafroller (Cnaphalocrocis medinalis); test: Insecticidal effect on rice leafroller (Test Example 3); details: 500 ppm, four days after inoculation, 25° C., humidity 70%; for Insecticidal effect, Test Example 3: rice lamina immersed; for Insecticidal effect on rice leafroller (Test Example 3), judged grade: rice lamina dip, third-instar larvae
Outline: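 Groups of 10 third-instar larvae, in triplicate, are placed on air-dried lamina resting on wet filter paper. Incubation runs four days at 25° C with 70% humidity before survivors and dead are tallied.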

[4] = judged by the mortality criterion of Test Example 1
[5] = second-instar larvae of common cutworm
[6] = mortality judged by criterion of Test Example 1
[7] = common cutworm second-instar larvae
[8] = third-instar larvae of rice leafroller

CC(C)NC(=O)c1cc(Cl)ccc1C(=O)Nc1ccc(F)cc1 [compound 169]
Insecticidal effect, Test Example 1 [1, 4]: A (100)
Insecticidal effect, Test Example 2 [2, 5]: D (79-50)

Cc1cc(Cl)ccc1NC(=O)c1c(Cl)cccc1C(=O)NC(C)(C)C [compound 938]
Insecticidal effect on diamondback moth (Test Example 1), judged grade [1]: A (100)
Insecticidal effect on common cutworm (Test Example 2), judged grade [2]: A (100)

Cc1ccc(NC(=O)c2c(I)cccc2C(=O)NC(C)C)c(C)c1Cl [compound 429]
Insecticidal effect, Test Example 1 [1, 4]: A (100)
Insecticidal effect, Test Example 2 [2, 5]: D (79-50)

CC(C)NC(=O)c1c(C(=O)Nc2cc(C(F)(F)F)cc(C(F)(F)F)c2)cccc1[N+](=O)[O-] [compound 654]
Insecticidal effect on common cutworm (Test Example 2), judged grade [2]: D (79-50)

Cc1cc(OC(F)(F)F)ccc1NC(=O)c1cccc(OC(F)(F)F)c1C(=O)NC(C)(C)C [compound 1234]
Insecticidal effect, Test Example 1 [1, 6]: A (100)
Insecticidal effect, Test Example 2 [2, 7]: A (100)

Cc1cc(C#Cc2ccc(Cl)cc2Cl)ccc1NC(=O)c1cccc(I)c1C(=O)NC(C)C [compound 972]
Insecticidal effect, Test Example 2 [2, 7]: A (100)

CC(C)NC(=O)c1c(Cl)cccc1C(=O)Nc1cc2c(cc1F)OC(F)(F)O2 [compound 1594]
Insecticidal effect (Test Example 1), judged from mortality [1]: A (100)
Insecticidal effect (Test Example 2), judged from mortality [2, 5]: A (100)

O=C(Nc1ccc(C(F)(F)F)cc1)c1ccccc1C(=O)N1CCCC1 [compound 881]
Insecticidal effect on diamondback moth (Test Example 1), judged grade [1]: A (100)
Insecticidal effect on common cutworm (Test Example 2), judged grade [2]: D (79-50)

Cc1cc(OC(F)(F)F)ccc1NC(=O)c1cccc(C(F)(F)F)c1C(=O)NC(C)C [compound 1183]
Insecticidal effect, Test Example 1 [1, 6]: A (100)
Insecticidal effect, Test Example 2 [2, 7]: A (100)

Cc1cc2c(cc1NC(=O)c1cccc(I)c1C(=O)NC(C)(C)C)OC(F)(F)C(F)O2 (racemic) [compound 1599]
Insecticidal effect (Test Example 1), judged from mortality [1]: A (100)
Insecticidal effect (Test Example 2), judged from mortality [2, 5]: A (100)

CC(C)NC(=O)c1c(C(=O)Nc2ccc(Cl)cc2Cl)cccc1[N+](=O)[O-] [compound 633]
Insecticidal effect on diamondback moth (Test Example 1), judged grade [1]: A (100)
Insecticidal effect on common cutworm (Test Example 2), judged grade [2]: D (79-50)

Cc1ccccc1NC(=O)c1cc(Cl)ccc1C(=O)NC(C)C [compound 183]
Insecticidal effect, Test Example 1 [1, 4]: A (100)
Insecticidal effect, Test Example 2 [2, 5]: B (99-90)

CC(C)NC(=O)c1c(I)cccc1C(=O)Nc1cc2c(cc1F)OC(F)(F)O2 [compound 1595]
Insecticidal effect (Test Example 1), judged from mortality [1]: A (100)
Insecticidal effect (Test Example 2), judged from mortality [2, 5]: A (100)

CCN(CC)C(=O)c1c(I)cccc1C(=O)Nc1ccc(-c2ccc(C(F)(F)F)cc2)cc1C [compound 1619]
Insecticidal effect (Test Example 1), judged from mortality [1]: A (100)
Insecticidal effect (Test Example 2), judged from mortality [2, 5]: A (100)

CCN(CC)C(=O)c1ccccc1C(=O)Nc1ccc(C(F)(F)F)cc1 [compound 12]
Insecticidal effect, Test Example 1 [1, 4]: A (100)
Insecticidal effect, Test Example 2 [2, 5]: D (79-50)

CCN(CC)C(=O)c1c(OC(F)(F)F)cccc1C(=O)Nc1ccc(OC(F)(F)F)cc1C [compound 1235]
Insecticidal effect, Test Example 1 [1, 6]: A (100)
Insecticidal effect, Test Example 2 [2, 7]: D (79-50)

Cc1cc(OC(F)(F)C(F)OC(F)(F)F)ccc1NC(=O)c1c(F)cccc1C(=O)NC(C)C (centres unmarked) [compound 570]
Insecticidal effect on diamondback moth (Test Example 1), judged grade [1]: A (100)
Insecticidal effect on common cutworm (Test Example 2), judged grade [2]: A (100)

Cc1cc(OC(F)(F)F)ccc1NC(=O)c1cccc(I)c1C(=O)NC(C)(C)CBr [compound 1605]
Insecticidal effect (Test Example 1), judged from mortality [1]: A (100)
Insecticidal effect (Test Example 2), judged from mortality [2, 5]: C (89-80)

CC(C)NC(=O)c1ccccc1C(=O)Nc1ccc(SC(F)(F)F)cc1 [compound 1123]
Insecticidal effect, Test Example 2 [2, 7]: A (100)

Cc1cc(OC(F)F)ccc1NC(=O)c1cc(Cl)ccc1C(=O)NC(C)C [compound 193]
Insecticidal effect, Test Example 1 [1, 4]: A (100)
Insecticidal effect, Test Example 2 [2, 5]: D (79-50)

CC(C)(C)NC(=O)c1c(I)cccc1C(=O)Nc1ccc(OC(F)(F)F)cc1F [compound 1189]
Insecticidal effect, Test Example 1 [1, 6]: A (100)
Insecticidal effect, Test Example 2 [2, 7]: A (100)

CC(C)NC(=O)c1c(C(=O)Nc2ccc(Cl)c(Cl)c2Cl)cccc1[N+](=O)[O-] [compound 644]
Insecticidal effect on diamondback moth (Test Example 1), judged grade [1]: A (100)
Insecticidal effect on common cutworm (Test Example 2), judged grade [2]: A (100)

CC(C)NC(=O)c1c(I)cccc1C(=O)Nc1ccc(C(F)(C(F)(F)F)C(F)(F)F)c(Cl)c1 [compound 1697]
Insecticidal effect (Test Example 1), judged from mortality [1]: A (100)
Insecticidal effect (Test Example 2), judged from mortality [2, 5]: A (100)

COc1ccc(NC(=O)c2c(I)cccc2C(=O)NC(C)C)c(C)c1C [compound 451]
Insecticidal effect on diamondback moth (Test Example 1), judged grade [1]: A (100)
Insecticidal effect on common cutworm (Test Example 2), judged grade [2]: A (100)

Cc1ccc(NC(=O)c2c(Br)cccc2C(=O)NC(C)C)c(C)c1Cl [compound 309]
Insecticidal effect, Test Example 1 [1, 4]: A (100)
Insecticidal effect, Test Example 2 [2, 5]: A (100)

Cc1cc(OC(F)(F)F)ccc1NC(=O)c1cccc(OC(F)(F)F)c1C(=O)NC(C)C [compound 1233]
Insecticidal effect, Test Example 1 [1, 6]: A (100)
Insecticidal effect, Test Example 2 [2, 7]: A (100)

CC(C)NC(=O)c1c(I)cccc1C(=O)Nc1ccc(C(F)(C(F)(F)F)C(F)(F)F)c(F)c1 [compound 1695]
Insecticidal effect (Test Example 1), judged from mortality [1]: A (100)
Insecticidal effect (Test Example 2), judged from mortality [2, 5]: A (100)

CC(C)NC(=O)c1c(I)cccc1C(=O)Nc1cc2c(cc1Br)OC(F)(F)C(F)O2 (centres unmarked) [compound 1684]
Insecticidal effect (Test Example 1), judged from mortality [1]: A (100)
Insecticidal effect (Test Example 2), judged from mortality [2, 5]: A (100)

CC(C)NC(=O)c1c(Cl)cccc1C(=O)Nc1ccc(OC(F)(F)F)cc1F [compound 1187]
Insecticidal effect, Test Example 1 [1, 6]: A (100)
Insecticidal effect, Test Example 2 [2, 7]: A (100)

CC(C)(C)NC(=O)c1c(I)cccc1C(=O)Nc1ccc(C(F)(F)C(F)(F)F)c(Cl)c1 [compound 1609]
Insecticidal effect (Test Example 1), judged from mortality [1]: A (100)
Insecticidal effect (Test Example 2), judged from mortality [2, 5]: A (100)

CSc1cc(C(F)(C(F)(F)F)C(F)(F)F)ccc1NC(=O)c1cccc(I)c1C(=O)NC(C)C [compound 1671]
Insecticidal effect (Test Example 1), judged from mortality [1]: A (100)
Insecticidal effect (Test Example 2), judged from mortality [2, 5]: A (100)

CSc1cccc(C(=O)NC(C)C)c1C(=O)Nc1cccc(Cl)c1C [compound 785]
Insecticidal effect on common cutworm (Test Example 2), judged grade [2]: A (100)

Cc1ccc(Cl)cc1NC(=O)c1cccc([N+](=O)[O-])c1C(=O)NCC(C)C [compound 831]
Insecticidal effect on diamondback moth (Test Example 1), judged grade [1]: D (79-50)
Insecticidal effect on common cutworm (Test Example 2), judged grade [2]: D (79-50)

Cc1cc(C(F)(F)C(F)(F)F)ccc1NC(=O)c1cccc(I)c1C(=O)N[C@@H](C)CBr [compound 1606]
Insecticidal effect (Test Example 1), judged from mortality [1]: A (100)
Insecticidal effect (Test Example 2), judged from mortality [2, 5]: A (100)

CCN(CC)C(=O)c1c(I)cccc1C(=O)N(CC)c1ccc(C(F)(F)C(F)(F)F)cc1C [compound 1179]
Insecticidal effect, Test Example 1 [1, 6]: A (100)
Insecticidal effect, Test Example 2 [2, 7]: A (100)

CCOc1cc(C(F)(C(F)(F)F)C(F)(F)F)ccc1NC(=O)c1cccc(I)c1C(=O)NC(C)C [compound 1693]
Insecticidal effect (Test Example 1), judged from mortality [1]: A (100)
Insecticidal effect (Test Example 2), judged from mortality [2, 5]: A (100)

CC(C)NC(=O)c1c(I)cccc1C(=O)Nc1ccc2c(c1Cl)OC(F)(F)C(F)(F)O2 [compound 1732]
Insecticidal effect (Test Example 2), judged from mortality [2, 5]: A (100)

CC(C)NC(=O)c1c(C(=O)Nc2cccc(Cl)c2Cl)cccc1[N+](=O)[O-] [compound 584]
Insecticidal effect on diamondback moth (Test Example 1), judged grade [1]: A (100)
Insecticidal effect on common cutworm (Test Example 2), judged grade [2]: D (79-50)

CC(C)NC(=O)c1ccc(Cl)cc1C(=O)Nc1ccccc1 [compound 181]
Insecticidal effect, Test Example 2 [2, 5]: A (100)

Cc1ccc(OCCNC(=O)c2c(C(=O)Nc3cc(Cl)ccc3C)cccc2[N+](=O)[O-])c(C)c1 [compound 880]
Insecticidal effect on common cutworm (Test Example 2), judged grade [2]: D (79-50)

CCCC(C)NC(=O)c1cccc(I)c1C(=O)Nc1ccc(C(F)(F)C(F)(F)F)cc1C (centres unmarked) [compound 1010]
Insecticidal effect, Test Example 1 [1, 6]: A (100)
Insecticidal effect, Test Example 3 ([3]; rice leafroller third-instar larvae): A (100)

Cc1cc(C(F)(F)C(F)(F)C(F)(F)C(F)(F)C(F)(F)C(F)(F)F)ccc1NC(=O)c1c(Cl)cccc1C(=O)NC(C)C [compound 226]
Insecticidal effect, Test Example 1 [1, 4]: A (100)
Insecticidal effect, Test Example 3 [3, 8]: A (100)

CC(C)NC(=O)c1c(C(=O)Nc2ccc(Cl)cc2C(F)(F)F)cccc1[N+](=O)[O-] [compound 679]
Insecticidal effect on diamondback moth (Test Example 1), judged grade [1]: A (100)
Insecticidal effect on rice leafroller (Test Example 3), judged grade [3]: A (100)

CC(C)NC(=O)c1cccc(Cl)c1C(=O)Nc1ccc(Cl)cc1Cl [compound 209]
Insecticidal effect, Test Example 1 [1, 4]: A (100)
Insecticidal effect, Test Example 3 [3, 8]: B (99-90)

CCC(C)NC(=O)c1c(Cl)cccc1C(=O)Nc1ccc(OC(F)F)cc1C (centres unmarked) [compound 836]
Insecticidal effect on diamondback moth (Test Example 1), judged grade [1]: A (100)
Insecticidal effect on rice leafroller (Test Example 3), judged grade [3]: A (100)
